Measurements as given in patent publication US20240270762A1, “PENICILLIN-BINDING PROTEIN INHIBITORS” (priority 2021, published 2024).
≈ marks a conversion by molar mass, not a printed value.

Legend:
[1] = biological target: T1, PBP3 from Acinetobacter baumannii (ATCC 19606) (Acinetobacter baumannii, UniProt A0ABX6CK25); assay: Bocillin-FL fluorescence polarization competition binding, A. baumannii PBP3; settings: fluorescence polarization competition binding assay using Bocillin-FL; read-out: A. baumannii PBP3 Potency
T1 sequence (A0ABX6CK25 64-610): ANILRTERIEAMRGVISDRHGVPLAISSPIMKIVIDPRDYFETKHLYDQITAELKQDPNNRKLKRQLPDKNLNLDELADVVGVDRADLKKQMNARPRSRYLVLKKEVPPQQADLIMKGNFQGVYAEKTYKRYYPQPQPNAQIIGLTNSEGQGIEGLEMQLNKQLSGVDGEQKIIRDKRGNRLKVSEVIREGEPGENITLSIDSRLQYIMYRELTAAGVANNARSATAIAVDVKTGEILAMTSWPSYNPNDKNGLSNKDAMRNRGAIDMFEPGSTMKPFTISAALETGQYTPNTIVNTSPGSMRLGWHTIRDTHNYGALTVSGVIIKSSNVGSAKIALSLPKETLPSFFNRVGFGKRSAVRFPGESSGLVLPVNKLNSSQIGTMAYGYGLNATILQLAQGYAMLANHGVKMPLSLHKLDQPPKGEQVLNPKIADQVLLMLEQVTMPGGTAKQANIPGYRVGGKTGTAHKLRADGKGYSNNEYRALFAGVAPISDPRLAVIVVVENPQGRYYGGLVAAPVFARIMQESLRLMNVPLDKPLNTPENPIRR
How it was run: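 Purified PBPs pre-incubated with inhibitor (E. coli PBP3 1.5 μM, 30 min; P. aeruginosa PBP3 0.75 μM, A. baumannii PBP1a 1 μM and PBP3 0.2 μM, 15 min), then Bocillin-FL 0.1 μM (0.05 μM for PBP1a) added; FP read up to 60 min. EC50 = concentration halving bound Bocillin-FL.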

[2] = system: P. aeruginosa ATCC 27853; assay: microbe, parasite or virus in culture; format: cell-based; settings: Pseudomonas aeruginosa, ATCC27853, read-out: Minimum inhibitory concentration, P. aeruginosa ATCC 27853
[3] = system: A. baumannii 1258916; assay: microbe, parasite or virus in culture; format: cell-based, Acinetobacter baumannii; settings: Acinetobacter baumannii, 1258916, read-out: MIC, A. baumannii 1258916
[4] = system: B. thailandensis ATCC 700388; assay: microbe, parasite or virus in culture; format: cell-based; settings: Burkholderia thailandensis, ATCC700388, read-out: Minimum inhibitory concentration (MIC), B. thailandensis ATCC 700388

O=C(NCCCN1CCN(C(=O)NC(C(=O)N[C@H]2Cc3ccc(F)c(C(=O)O)c3OB2O)c2cc(F)c(O)c(O)c2Cl)C(=O)C1=O)c1c(F)cc(O)cc1Cl (stereo partly drawn) [Example 421, (3R)-3-(2-(2-chloro-5-fluoro-3,4-dihydroxyphenyl)-2-(4-(3-(2-chloro-6-fluoro-4-hydroxybenzamido)propyl)-2,3-dioxopiperazine-1-carboxamido)acetamido)-7-fluoro-2-hydroxy-3,4-dihydro-2H-benzo[e][1,2]oxaborinine-8-carboxylic acid]
IC50 [1]: < 10 µM | MIC [2]: 2 to 4 µg/mL (≈ 2.46 to 4.92 µM) | MIC [3]: 2 to 4 µg/mL (≈ 2.46 to 4.92 µM) | MIC [4]: 2 to 4 µg/mL (≈ 2.46 to 4.92 µM)

O=C(NCCCN1CCN(C(=O)N[C@@H](C(=O)N[C@H]2Cc3ccc(F)c(C(=O)O)c3OB2O)c2cc(F)c(O)c(O)c2Cl)C(=O)C1=O)c1cc(F)c(O)c(F)c1 [Example 422, (R)-3-((R)-2-(2-chloro-5-fluoro-3,4-dihydroxyphenyl)-2-(4-(3-(3,5-difluoro-4-hydroxybenzamido)propyl)-2,3-dioxopiperazine-1-carboxamido)acetamido)-7-fluoro-2-hydroxy-3,4-dihydro-2H-benzo[e][1,2]oxaborinine-8-carboxylic acid]
IC50 [1]: < 10 µM | MIC [2]: 2 to 4 µg/mL (≈ 2.51 to 5.03 µM) | MIC [3]: < 1 µg/mL | MIC [4]: < 1 µg/mL

O=C(NCCCN1CCN(C(=O)NC(C(=O)N[C@H]2Cc3ccc(F)c(C(=O)O)c3OB2O)c2cc(F)c(O)c(O)c2Cl)C(=O)C1=O)c1cc(O)cc(O)c1 (stereo partly drawn) [Example 423, (3R)-3-(2-(2-chloro-5-fluoro-3,4-dihydroxyphenyl)-2-(4-(3-(3,5-dihydroxybenzamido)propyl)-2,3-dioxopiperazine-1-carboxamido)acetamido)-7-fluoro-2-hydroxy-3,4-dihydro-2H-benzo[e][1,2]oxaborinine-8-carboxylic acid]
IC50 [1]: < 10 µM | MIC [2]: < 1 µg/mL | MIC [3]: < 1 µg/mL | MIC [4]: < 1 µg/mL

O=C(O)c1c(F)ccc2c1OB(O)[C@@H](NC(=O)C(NC(=O)N1CCN(C3CCN(C(=O)Nc4cccc(O)c4)CC3)C(=O)C1=O)c1cc(F)c(O)c(O)c1Cl)C2 (stereo partly drawn) [Example 424, (3R)-3-(2-(2-chloro-5-fluoro-3,4-dihydroxyphenyl)-2-(4-(1-((3-hydroxyphenyl)carbamoyl)piperidin-4-yl)-2,3-dioxopiperazine-1-carboxamido)acetamido)-7-fluoro-2-hydroxy-3,4-dihydro-2H-benzo[e][1,2]oxaborinine-8-carboxylic acid]
IC50 [1]: < 10 µM | MIC [2]: < 1 µg/mL | MIC [3]: < 1 µg/mL | MIC [4]: < 1 µg/mL

O=C(O)c1c(F)ccc2c1OB(O)[C@@H](NC(=O)C(NC(=O)N1CCN(C3CCN(C(=O)c4cncc(O)c4)CC3)C(=O)C1=O)c1cc(F)c(O)c(O)c1Cl)C2 (stereo partly drawn) [Example 425, (3R)-3-(2-(2-chloro-5-fluoro-3,4-dihydroxyphenyl)-2-(4-(1-(5-hydroxynicotinoyl)piperidin-4-yl)-2,3-dioxopiperazine-1-carboxamido)acetamido)-7-fluoro-2-hydroxy-3,4-dihydro-2H-benzo[e][1,2]oxaborinine-8-carboxylic acid]
IC50 [1]: < 10 µM | MIC [2]: < 1 µg/mL | MIC [3]: < 1 µg/mL | MIC [4]: < 1 µg/mL

O=C(O)c1c(F)ccc2c1OB(O)[C@@H](NC(=O)C(NC(=O)N1CCN(C3CCN(C(=O)c4ccc(O)cc4)CC3)C(=O)C1=O)c1cc(F)c(O)c(O)c1Cl)C2 (stereo partly drawn) [Example 427, (3R)-3-(2-(2-chloro-5-fluoro-3,4-dihydroxyphenyl)-2-(4-(1-(4-hydroxybenzoyl)piperidin-4-yl)-2,3-dioxopiperazine-1-carboxamido)acetamido)-7-fluoro-2-hydroxy-3,4-dihydro-2H-benzo[e][1,2]oxaborinine-8-carboxylic acid]
IC50 [1]: < 10 µM | MIC [2]: < 1 µg/mL | MIC [3]: < 1 µg/mL | MIC [4]: < 1 µg/mL
